{"source": "patent US6984729B1", "about": "“Oligonucleotides specific for hepatitis B virus” (priority 1995, dated 2006)", "key": {"[1]": {"test_system": "replicative intermediate (RI) HBV DNA in HepG2.2.15 cells", "test": "Southern hybridization viral assay in HepG2.2.15 cells", "type": "cell-based, hepatitis B virus", "details": "titrated concentrations, FIGS. 11, 12", "text": "The activity of antisense oligonucleotides was also studied in a viral assay in HepG2.2.15 cells, which have been stably transfected with plasmids carrying whole HBV genomes (Sells et al. (1987) Proc. Nat. Acad. Sci. 84:1005–1009; Sureau et al. (1986) Cell 47:37–47). […] A more definitive test is Southern hybridization, which provides data concerning the character of the detected DNA in addition to quantitation. This assay has been described previously for the screening of anti-HBV compounds on HepG2.2.15 cells (Doong et al. (1991) Proc. Nat. Acad. Sci. (USA) 88:8495–8499). In view of the many potential sources of HBV DNA from transfected cells, this assay allows for a more meaningful interpretation of results than the other methods mentioned.\nThe cell line HepG2.2.15 (Sells et al. (1988) J. Virol. 62:2836–2844) was routinely cultured in RPMI.1640 medium (Life Technologies Ltd., Paisley, Scotland) supplemented with 10% fetal bovine serum (FBS), 100 U/ml penicillin, and 150 μg/ml streptomycin. Cultures were replaced after 10 passages with cells freshly cultured from a mycoplasma-free frozen stock. Cultures were maintained at 37° C. in a humidified atmosphere of 5% CO2 in air.\nCells were cultured in 6-well plates at 10^6 cells/well in 4 ml medium (RPMI.1640 as above but supplemented with 5% FBS) and maintained as above. […]"}, "[2]": {"test_system": "internally 32P-labelled HBV precore-core RNA (epsilon region)", "test": "RNase H cleavage of HBV precore-core RNA with noncontiguous oligonucleotides targeted to the epsilon region", "type": "biochemical, hepatitis B virus", "protocol": "To determine whether an oligonucleotide of the invention is capable of successfully hybridizing to its target, an RNase H assay was performed (Frank et al. (1993) Proc. Int. Conf. Nucleic Acid Med. Applns. 1:4.14(abstract)). This assay is useful when a region of at least four contiguous nucleotides of the oligonucleotide is DNA and the target is RNA. Hybridization of the DNA portion of the oligonucleotide to the RNA target is identified by cleavage at that site by RNase H.\nNoncontiguous oligonucleotides targeted to the HBV epsilon region have also been prepared and tested. The epsilon region is characterized by an RNA stem-loop structure consisting primarily of double-stranded RNA with a single-stranded bulge and loop of 6 bases each (FIG. 3). […] The ability of RNase H to cleave an RNA in this manner inflicts greater damage on the RNA than normal antisense oligodeoxynucleotides, while allowing the targeting of a biologically important region that is otherwise difficult to target due to its double-stranded nature.\nBased on this information, several oligodeoxynucleotide phosphorothioates were prepared to test the hypothesis that hybridization by mode B is preferred when spanning the base of an RNA stem. 20mer and 24mer noncontiguous oligonucleotides (Table 2) were prepared as well as the 10mers and 12mers corresponding to the “arms” of the noncontiguous sequences.\nIf a single oligodeoxynucleotide were able to bind across the base of epsilon to sequences on either side of the stem, RNase H might cleave both sites and effectively cut out the epsilon stem-loop from the RNA. […] The 12+12 noncontiguous phosphorothioates show the same ability to bind across the base of the RNA stem. […] Double cleavage of the transcript in the presence of the mixture of 12mer arms (HBV71+HBV72) was much slower (FIG. 6B).\nWhen oligonucleotides hybridizing via mode B were lengthened to allow strand invasion of the RNA stem, disruption of the stem-loop structure occurred. Oligonucleotides HBV89 (SEQ ID NO:39), HBV90 (SEQ ID NO:40), and HBV91 (SEQ ID NO:41) bind across the base of epsilon via mode B and strand invade on either the 5 side (HBV89) or the 3′ side (HBV90 and HBV91) of the RNA stem. HBV89M is an extension of HBV64M with ten 2′-O-methyl RNA residues invading the RNA stem on the 5′-side. Addition of these strand invading nucleotides increased the cleavage efficiency from 23% to 32% at 100 nM oligonucleotide.\nUniformally ^32P-labelled RNA was prepared from 1 μg linearized plasmid using the Ambion MEGAscript In Vitro Transcription Kit (Ambion, Inc., Austin, Tex.) according to the manufacturers' instructions, using [α-^32p] CTP as the radioactive label. The RNA was treated with RNase-free DNase I (Ambion, Inc., Austin, Tex.), extracted with phenol:chloroform: isoamyl alcohol (25:24:1) and purified from nucleotides and nucleosides on a G-50 Sephadex spin column (Boehringer-Mannheim, Indianapolis, Ind., or Pharmacia, Uppsala, Sweden).\nIn 9 μl 1× RNase H buffer (40 mM Tris-HCl pH 7.4, 4 mM MgCl2, 1 mM DTT), 20–100 nM labelled RNA and 100 nM oligonucleotides were preincubated for 15 min at 37° C. 1 μl RNase H (1 U/μl) was added, and the reaction was incubated at 37° C. for 10 min. The reactions were quenched and analyzed as described above.\nQuantitation of the cleavage products was performed using software supplied with the Phosphorimager (Molecular Dynamics, Sunnyvale, Calif., or Bio-Rad Laboratories, Hercules, Calif.). “Counts” were determined by drawing a box around the band of interest and subtracting the background determined with a box drawn nearby. Counts in a product band were compared to total counts in the lane above that band to determine % cleavage."}, "parent pGLori sequence": {"test_system": "parent pGLori sequence", "test": "Firefly luciferase reporter gene assay in HepG2 cells stably transfected with parent construct (control)", "type": "cell-based", "protocol": "Oligonucleotides targeted to the polymerase translation initiation region were also tested in mammalian cells using a firefly luciferase reporter gene assay. The 35 nucleotide region spanning the translation start site of the HBV ayw polymerase gene from nt 2294–2328 was cloned 5′ to, and in frame with, the entire open reading frame of the firefly luciferase gene in the plasmid pGLori, to produce the plasmid pGLpol (FIG. 10). Transcription of this pol-luciferase gene fusion was placed under the control of the cytomegalovirus early gene promoter. Expression of the pol-luciferase fusion in mammalian cells was quantified in a luminometer by addition of luciferin substrate and ATP cofactor to cell lysates. In all cellular antisense assays, a random sequence 20mer phosphorothioate oligonucleotide (random 20mer PS) was used as a negative control. […]\nStably transfected HepG2 cells were seeded into 96 well plates. […] Cells were washed twice with Dulbecco's phosphate-buffered saline (PBS) and lysed in 50 μl cell lysis buffer (Analytical Luminescence Laboratory, San Diego, Calif.). Luciferase activity was measured in 20 μl lysate using Analytical Luminescence Laboratory substrates in a MicroLumat LB 96 P luminometer (EG&G Berthold, Nashua, N.H.)."}}, "note": "Entries after “also recorded” stand apart in the source; their conditions may differ.", "data": [{"substance": "ACCCAAGGCACAGCTTGGAG (phosphorothioate, further chemistry not given here) [HBV6]", "values": [{"measurement": "inhibition of the formation of replicative intermediate (RI) HBV DNA", "setting": "[1]", "value": "significant inhibition"}]}, {"substance": "AGGCAGAGGTGATATAAGGGTCGA (chemistry not given here) [HBV67]", "values": [{"measurement": "total RNA cleavage by RNase H", "setting": "[2]; 10+10 and 12+12 noncontiguous oligonucleotides versus mixtures of arms, FIGS. 5A, 6A", "value": "equal"}, {"measurement": "double cleavage (twice cleaved product) by RNase H on both sides of the epsilon stem", "setting": "[2]; FIGS. 5B, 6B", "value": "efficiently activate RNase H cleavage on both sides of the stem after only 1.5 minutes; also recorded: slightly more cleavage than mode A (HBV79)"}, {"measurement": "inhibition of the formation of replicative intermediate (RI) HBV DNA", "setting": "[1]", "value": "Inhibition was also found"}]}, {"substance": "Luc +1–+20: 20mer phosphorothioate antisense oligonucleotide targeting the first 20 nucleotides of the firefly luciferase coding region, positive control, SEQ ID NO:50 (antisense ATGTTTTTGGCGTCTTCCAT; all phosphorothioate, sugars by position and methylation of C not given here)", "values": [{"measurement": "antisense activity on luciferase expression, parent pGLori", "setting": "parent pGLori sequence", "value": "exhibited antisense activity"}]}]}
